Results on two compounds are retold here after patent US20030022906A1, “Use of pde v inhibitors” (priority 2000, published 2003).

For data set [1], the system named is anaesthetized dogs with closed thorax. The experiment in a line: Erectile function in anaesthetized dogs with closed thorax (pressure in corpus cavernosum rigidum). The format is in vivo, dog. The conditions noted are these: 1 mg of substance/1 kg of body weight i.d.; erection initiated by stimulation of the nervus pelvinus. As to the method:
(§1) All dose amounts are i.d. (intraduodenal), unless stated otherwise.
(§2) Measurements of Erectile Function in Anaesthetized Dogs with Closed Thorax
Erections of various extent were initiated by stimulation variation of the nervus pelvinus. The pressure in the corpus cavernosum rigidum [CCR] was measured.

The test system of data set [2] is anaesthetized dogs with open thorax. The data set can be described thus: Haemodynamics in anaesthetized dogs with open thorax. It counts as in vivo, dog.
Text: as §1

Data set [3] shares this test system. The data set can be described thus: Nitrate interaction in anaesthetized dogs with open thorax (i.v. infusion of isosorbitol dinitrate). It counts as in vivo, dog. The conditions noted are these: i.d., permanent i.v. infusion of isosorbitol dinitrate 50 μg/kg of body weight/hour. As to the method: Investigations of Nitrate Interaction of EMD 221829 and Sildenafil
The model and administration are as in B, but both test substances are administered with simultaneous permanent i.v. infusion of isosorbitol dinitrate (50 μg/kg of body weight/hour).

The test system of data set [4] is spontaneously hypertensive rats. The experiment in a line: Telemetric measurements of blood pressure and heart rate over 24 hours in spontaneously hypertensive rats. It counts as in vivo, rat. Particulars: 3, 10 and 30 mg/kg p.o.; telemetry over 24 hours. As to the method:
Telemetric Measurements of Blood Pressure and Heart Rate Over 24 Hours in Spontaneously Hypertensive Rats
Measurements of 3, 10 and 30 mg of substance/1 kg of body weight/p.o.

The subject of data set [5] is normotensive Wistar rats. The data set can be described thus: Telemetric measurements of blood pressure and heart rate over 24 hours in normotensive Wistar rats. The format is in vivo, rat. Particulars: 30, 100 and 300 mg/kg p.o.; telemetry over 24 hours.
In data set [6] the test system is spontaneously hypertensive rats. The data set can be described thus: Nitrate interaction in spontaneously hypertensive rats. The format is in vivo, rat. Particulars: i.v. cumulative 0.1, 0.3, 1, 3 or 10 mg/kg; infusion of isosorbitol dinitrate 100 μg/kg of body weight/hour. How it is done: Nitrate Interaction in Spontaneously Hypertensive Rats
Method: surgical instrumentation and measurement of blood pressure and heart rate after intravenous cumulative administration of either EMD 221829 or sildenafil (0.1, 0.3, 1, 3 or 10 mg/kg of body weight) with simultaneous infusion of isosorbitol dinitrate (100 μg/kg of body weight/hour).

The subject of data set [7] is anaesthetized dogs with closed thorax. The experiment in a line: Blood pressure and heart rate measured at the same time in anaesthetized dogs with closed thorax. The format is in vivo, dog. The conditions noted are these: 1 mg/kg i.d. How it is done: as §1, §2
At the same time, the blood pressure and heart rate were measured.

Where [8] appears, read: "in this dose" (100 mg of substance/1 kg of body weight) i.d.

Turning to `CCCc1nn(C)c2c(=O)[nH]c(-c3cc(S(=O)(=O)N4CCN(C)CC4)ccc3OCC)nc12` [sildenafil, reference compound], the “stimulation of erection (pressure in the corpus cavernosum rigidum)” value in data set [1] is given as “Corresponding results”. Besides, the blood pressure entry in data set [2] (setting [8]) is on record as “reduction”; in data set [4], “significant dose-dependent reduction”; in data set [5] it was “significant dose-dependent reduction”; in data set [6] it was “dose-dependent drop”. Moreover, the heart rate result in data set [2] (setting [8]), in data set [5] and in data set [6] was “increase” throughout. Also, in data set [3], the “changes in blood pressure and heart rate with simultaneous administration of nitrate” value is given as “significantly increased”.

In the case of `COc1ccc(CNc2nc(C3CCC(C(=O)O)CC3)nc3sc4ccccc4c23)cc1Cl.NCCO` (stereo not drawn) [EMD 221829, trans-4-[4-(3-chloro-4-methoxybenzylamino)benzo[4,5]-thieno[2,3-d]pyrimidin-2-yl]cyclohexanecarboxylic acid, ethanolamine salt], the “stimulation of erection (pressure in the corpus cavernosum rigidum)” value in data set [1] is given as “stimulates submaximal erection”. Besides, in data set [7], the “effect on haemodynamic parameters (blood pressure and heart rate)” value is listed as “no effect”. For the same compound, in data set [2] (1 mg of substance/1 kg of body weight i.d.), the “haemodynamic parameters compared with sildenafil” value is reported as “clear difference”. The “cardiovascular side effects (reduction in blood pressure with reflex increase in heart rate)” value in data set [2] (i.d.) is recorded as “no cardiovascular side effects”. The “dose from which effects on the blood pressure and heart rate are measurable” value in data set [2] (i.d.) is ≥ 100 mg of substance/1 kg of body weight. The “changes in blood pressure and heart rate with simultaneous administration of nitrate” value in data set [3] is listed as “no changes”. Besides, the blood pressure entry in data set [4] is reported as “no change”; in data set [5], “no changes”; in data set [6] it was “no change”. In addition, the figures for the heart rate entry in data set [5] and in data set [6] were “no changes” and “no change”, respectively.
